Assay results: paper PMC9804084, “Multiple drug transporters contribute to the brain transfer of levofloxacin” (CNS Neuroscience & Therapeutics, 2022)
Read-outs that look alike come from different tables or passages of the source.

Assay: In vivo microdialysis pharmacokinetics of LVFX without transporter inhibitors
Set-up: species or system rat
Conditions: for AUC(0-inf) / Cmax / AUC(0-t) / Tmax / Kp / MRT / half-life: rat; for AUC(0-inf) / Cmax / AUC(0-t) / Tmax / MRT / half-life: iv; for AUC(0-inf) / Cmax / AUC(0-t) / MRT / half-life: 50 mg/kg, mean ± SD; for AUC(0-t): read-out: AUC0–180 (converted); for Kp: intravenous, LVFX 50 mg/kg tail vein, no inhibitor
Method: On the day of surgery, rats were anesthetized using inhaled isoflurane via a facemask. The rats were placed in a stereotaxic frame (Gene&I), and the body temperature was maintained with a homoeothermic blanket set at 37°C. A midline incision was made to expose the skull. According to the Paxinos and Watson atlas, two microdialysis intracerebral guide cannulae (Eicom Co.) were implanted into the hippocampus CA1 region (Hp‐CA1 coordinates: AP −4.16 mm; ML −2.2 mm; DV −2.9 mm) and lateral ventricle (LV coordinates: AP −1.4 mm; ML +2.2 mm; DV −3.4 mm). Fixed to the skull using a screw and dental cement. After 3 days of recovery, the rats were anesthetized with isoflurane again. An intravascular probe (TP‐100‐20; 20 mm, Eicom Co.) was implanted into the jugular vein toward the right atrium. After the blood microdialysis probe was positioned within the jugular vein, the pipeline was connected to perfuse with ACD solution (citric acid 3.5 mM; sodium citrate 7.5 mM; dextrose 13.6 mM) at a flow rate of […], and the Hamilton microinjection pump was used for continuous perfusion. After stopping isoflurane inhalation, the rats were allowed to wake up naturally on the homoeothermic blanket. The awake rats were placed in a device that allowed them to move freely. Animals were allowed to recover for an additional 24 h.
All microdialysate concentrations (C m) from the hippocampal ECF and lateral ventricle CSF were converted to the unbound drug concentration (C u) at the target site using the following formula: C u = C m/R dial.
A total of 32 rats were randomly divided into the following groups: • Control group, N = 12: vehicle solution + LVFX (50 mg/kg). • TAR group, N = 5: Tariquidar (8 mg/kg) + LVFX (50 mg/kg). • Ko143 group, N = 5: Ko143 (15 mg/kg) + LVFX (50 mg/kg). • MK571 group, N = 5: MK571 (20 mg/kg) + LVFX (50 mg/kg). • PRO group, N = 5: Probenecid (50 mg/kg) + LVFX (50 mg/kg).
Given that the solvents of intervention drugs were different, the control group was subdivided into four subgroups (n = 3). According to the preparation method of the transporter regulator, an equal volume of solvent was used as the control.
Levofloxacin was freshly dissolved in isotonic saline and administered via tail vein injection. Thirty minutes before LVFX administration, the intervention drugs of each group were injected intraperitoneally. To reduce the possible effect of solvents on BBB or BCSFB permeability of LVFX, we prioritized water as the solvent. However, Tariquidar and Ko143 are insoluble in water, and a cosolvent must be used to prepare agents that animals can tolerate. According to the different physicochemical properties of these four inhibitors, the preparation of each transporter inhibitor solution in this experiment was as follows. • P‐glycoprotein (P‐gp) inhibitor Tariquidar[22]: Tariquidar was freshly dissolved in DMSO to 8 mg/ml and then diluted to 4 mg/ml with a solution containing 10% Tween‐80, 25% PEG300, and 65% sterile water. • Breast cancer resistance protein (BCRP) inhibitor Ko143[23]: Ko143 was freshly dissolved in DMSO to 15 mg/ml and then diluted to 7.5 mg/ml with a solution containing 10% Tween‐80, 25% PEG300, and 65% sterile water. • Multidrug resistance‐associated proteins (MRPs) inhibitor MK571[24]: MK571 sodium salt hydrate was dissolved in 1.25% (w/v) aq sodium hydrogen carbonate (NaHCO3) solution to obtain a concentration of 10 mg/ml. • Organic anion transporters (OATs) inhibitor probenecid[25]: Probenecid was dissolved in NaOH (pH = 9.0–9.2) alkalized physiological saline to obtain a concentration of 25 mg/ml.
The pipelines where the blood and brain probes were installed were perfused at the speed of 2 μl/min with ACD solution and ACSF, respectively. Two brain probes were inserted into guide cannulas of the target site and allowed to equilibrate for 1 h. Subsequently, the rats were treated according to their corresponding groups in the device where they could move freely.

[1] = CSF (lateral ventricle microdialysate), CSF, Group 1: vehicle solution of Tariquidar/Ko143 + LVFX 50 mg/kg, n=3
[2] = CSF (lateral ventricle microdialysate), CSF, Group 2: 1.25% NaHCO3 solution + LVFX 50 mg/kg, n=3
[3] = CSF (lateral ventricle microdialysate), CSF, Group 4: LVFX 50 mg/kg alone, n=3
[4] = CSF (lateral ventricle microdialysate), pH 9, CSF, Group 3: physiological saline alkalinized with NaOH (pH 9.0–9.2) + LVFX 50 mg/kg, n=3
[5] = CSF, CSF, Group 1: vehicle solution of Tariquidar/Ko143 + LVFX 50 mg/kg, n=3
[6] = CSF, CSF, Group 2: 1.25% NaHCO3 solution + LVFX 50 mg/kg, n=3
[7] = CSF, CSF, Group 4: LVFX 50 mg/kg alone, n=3
[8] = CSF, pH 9, CSF, Group 3: physiological saline alkalinized with NaOH (pH 9.0–9.2) + LVFX 50 mg/kg, n=3
[9] = blood (microdialysate, unbound), blood, Group 1: vehicle solution of Tariquidar/Ko143 + LVFX 50 mg/kg, n=3
[10] = blood (microdialysate, unbound), blood, Group 2: 1.25% NaHCO3 solution + LVFX 50 mg/kg, n=3
[11] = blood (microdialysate, unbound), blood, Group 4: LVFX 50 mg/kg alone, n=3
[12] = blood (microdialysate, unbound), pH 9, blood, Group 3: physiological saline alkalinized with NaOH (pH 9.0–9.2) + LVFX 50 mg/kg, n=3
[13] = blood, blood, control group, vehicle + LVFX 50 mg/kg tail vein, N=12
[14] = brain ECF, brain ECF, Group 1: vehicle solution of Tariquidar/Ko143 + LVFX 50 mg/kg, n=3
[15] = brain ECF, brain ECF, Group 2: 1.25% NaHCO3 solution + LVFX 50 mg/kg, n=3
[16] = brain ECF, brain ECF, Group 4: LVFX 50 mg/kg alone, n=3
[17] = brain ECF, pH 9, brain ECF, Group 3: physiological saline alkalinized with NaOH (pH 9.0–9.2) + LVFX 50 mg/kg, n=3
[18] = hippocampal brain ECF (microdialysate, unbound), hippocampal brain ECF, control group, vehicle + LVFX 50 mg/kg tail vein, N=12
[19] = lateral ventricle CSF (microdialysate, unbound), lateral ventricle CSF, control group, vehicle + LVFX 50 mg/kg tail vein, N=12

T max (CSF, Group 2: 1.25% NaHCO3 solution + LVFX 50 mg/kg, n=3): 15 min | T max (CSF, Group 4: LVFX 50 mg/kg alone, n=3): 15 min | T max (blood, Group 2: 1.25% NaHCO3 solution + LVFX 50 mg/kg, n=3): 15 min | T max (blood, control group, vehicle + LVFX 50 mg/kg tail vein, N=12): 15 min | T max (brain ECF, Group 2: 1.25% NaHCO3 solution + LVFX 50 mg/kg, n=3): 15 min | T max (brain ECF, Group 4: LVFX 50 mg/kg alone, n=3): 15 min | AUC(0-inf) [1]: 4080 ng·h/mL | Cmax [1]: 3540 ± 150 ng/mL | AUC(0-t) [1]: 3810 ng·h/mL | AUC(0-inf) [2]: 4490 ng·h/mL | Cmax [2]: 3860 ± 320 ng/mL | AUC(0-t) [2]: 4140 ng·h/mL | Cmax [3]: 3480 ± 370 ng/mL | AUC(0-t) [3]: 4330 ng·h/mL | AUC(0-inf) [4]: 4950 ng·h/mL | Cmax [4]: 3700 ± 140 ng/mL | AUC(0-t) [4]: 4490 ng·h/mL | Tmax [1]: 15 min | Tmax (CSF (lateral ventricle microdialysate), CSF, Group 3: physiological saline alkalinized with NaOH (pH 9.0–9.2) + LVFX 50 mg/kg, n=3): 15 min | Kp (CSF / blood (unbound, microdialysate), AUCu,CSF/AUCu,blood, control group, N=12, read-out: K p,uu,CSF): 0.412 ± 0.024 | MRT [5]: 70.8 min | half-life [5]: 38 ± 11.9 min | MRT [6]: 74 min | half-life [6]: 50.6 ± 8.78 min | AUC(0-inf) [7]: 4680 ng·h/mL | MRT [7]: 76.7 min | half-life [7]: 42.2 ± 5.6 min | MRT [8]: 81.8 min | half-life [8]: 45.8 ± 19.7 min | AUC(0-inf) [9]: 11000 ng·h/mL | MRT [9]: 63.9 min | half-life [9]: 40.5 ± 5.68 min | AUC(0-t) [9]: 10300 ng·h/mL | AUC(0-inf) [10]: 11700 ng·h/mL | MRT [10]: 73.9 min | half-life [10]: 50.5 ± 9.53 min | AUC(0-t) [10]: 10700 ng·h/mL | AUC(0-inf) [11]: 11700 ng·h/mL | MRT [11]: 86.2 min | half-life [11]: 60.6 ± 11.2 min | AUC(0-t) [11]: 10200 ng·h/mL | AUC(0-inf) [12]: 10100 ng·h/mL | MRT [12]: 69.3 min | half-life [12]: 45.3 ± 6.27 min | AUC(0-t) [12]: 9340 ng·h/mL | Tmax [11]: 15 min | Cmax (blood, blood, Group 1: vehicle solution of Tariquidar/Ko143 + LVFX 50 mg/kg, n=3): 10400 ± 1040 ng/mL | Cmax (blood, blood, Group 2: 1.25% NaHCO3 solution + LVFX 50 mg/kg, n=3): 10700 ± 320 ng/mL | Cmax (blood, blood, Group 4: LVFX 50 mg/kg alone, n=3): 9970 ± 590 ng/mL | AUC(0-inf) [13]: 11100 ng·h/mL | Cmax [13]: 10200 ± 700 ng/mL | MRT [13]: 73.3 min | half-life [13]: 49.2 ± 10.6 min | AUC(0-t) [13]: 10200 ng·h/mL | Cmax (blood, pH 9, blood, Group 3: physiological saline alkalinized with NaOH (pH 9.0–9.2) + LVFX 50 mg/kg, n=3): 9780 ± 390 ng/mL | Kp (brain ECF / blood, AUCu,ECF/AUCu,blood, control group, N=12, read-out: K p,uu,ECF): 0.34 ± 0.017 | AUC(0-inf) [14]: 3730 ng·h/mL | Cmax [14]: 2920 ± 520 ng/mL | MRT [14]: 74.1 min | half-life [14]: 39.8 ± 14.3 min | AUC(0-t) [14]: 3480 ng·h/mL | AUC(0-inf) [15]: 3600 ng·h/mL | Cmax [15]: 2720 ± 150 ng/mL | MRT [15]: 84.1 min | half-life [15]: 53.4 ± 9.24 min | AUC(0-t) [15]: 3240 ng·h/mL | AUC(0-inf) [16]: 3940 ng·h/mL | Cmax [16]: 3050 ± 760 ng/mL | MRT [16]: 80.9 min | half-life [16]: 49 ± 17.9 min | AUC(0-t) [16]: 3600 ng·h/mL | AUC(0-inf) [17]: 3820 ng·h/mL | Cmax [17]: 2540 ± 170 ng/mL | MRT [17]: 84 min | half-life [17]: 49.8 ± 20.7 min | AUC(0-t) [17]: 3470 ng·h/mL | AUC(0-inf) [18]: 3770 ng·h/mL | Cmax [18]: 2710 ± 300 ng/mL | MRT [18]: 80.8 min | half-life [18]: 48 ± 14.7 min | AUC(0-t) [18]: 3450 ng·h/mL | Tmax [18]: 15 min | Tmax (blood, Group 1: vehicle solution of Tariquidar/Ko143 + LVFX 50 mg/kg, n=3): 15 min | Tmax (blood, Group 3: physiological saline alkalinized with NaOH (pH 9.0–9.2) + LVFX 50 mg/kg, n=3): 15 min | Tmax (brain ECF, Group 1: vehicle solution of Tariquidar/Ko143 + LVFX 50 mg/kg, n=3): 15 min | Tmax (brain ECF, Group 3: physiological saline alkalinized with NaOH (pH 9.0–9.2) + LVFX 50 mg/kg, n=3): 15 min | AUC(0-inf) [19]: 4550 ng·h/mL | Cmax [19]: 3650 ± 270 ng/mL | MRT [19]: 75.8 min | half-life [19]: 44.1 ± 11.8 min | AUC(0-t) [19]: 4190 ng·h/mL | Tmax [19]: 15 min | difference in LVFX concentration (and AUC value) between brain ECF and CSF (with or without treatment with transporter inhibitors): < 3 fold
Structure (SMILES): C[C@H]1COc2c(N3CCN(C)CC3)c(F)cc3c(=O)c(C(=O)O)cn1c23 [LVFX, Levofloxacin]
